For three compounds, inhibition and IC50 results are on record in patent US11661419B2, “Benzimidazole derivative compounds and uses thereof” (Pfizer Inc., priority 2019, dated 2023).

pIC50: −log10 of the molar value.

One may read the inhibition as the relative decrease from the control value, in per cent. By pIC50 is commonly meant the negative decadic logarithm of the IC50, by convention in mol/L. Low readings indicate a large IC50, high ones a small IC50.

Assay [1] concerns the target Tropomyosin receptor kinase A (TRKA, NTRK1) (Homo sapiens (Human), UniProt P04629). As to the kind of experiment: TRKA (NTRK1) enzyme Z'-LYTE assay. Particulars: arithmetic mean of count n; test compound 1 uM, ATP 1 mM. It counts as biochemical. The method, then: Tropomyosin Receptor Kinase a (TRKA) Activity, % Inhibition
TRKA, also known as neurotrophic tyrosine kinase receptor type 1 (NTKR1) activity was determined by measuring the effect of a test compound on the activity against the NTRK1 enzyme using the ThermoFisher Z'-LYTE Assay fluorescence-based coupled enzyme format (www.thermofisher.com/selectscreen). […] The resulting effect value for the tested compound was compared to the assay controls to determine the % inhibition (%).

Assay [2] relates to IL-2 in activated CD4+ human T-cells. As to the kind of experiment: IL-2 inhibition in supernatants from activated CD4+ human T-cells (cisbio HTRF). The assay is classed as cell-based. Particulars: T-cell; geometric mean of count n; CD3/CD28-expanded human CD4+ T cells stimulated with ImmunoCult, 20 to 24 hrs. The procedure, abridged: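 Expanded human CD4+ T cells (30,000 cells/well) were pre-incubated with compound for 15 min, then stimulated with ImmunoCult (1:50 final) for 20 to 24 hrs at 37° C.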
In general terms: TR-FRET usually uses a lanthanide donor and a delayed reading to cut background.

Sequence of Tropomyosin receptor kinase A (TRKA, NTRK1) (P04629 33-796): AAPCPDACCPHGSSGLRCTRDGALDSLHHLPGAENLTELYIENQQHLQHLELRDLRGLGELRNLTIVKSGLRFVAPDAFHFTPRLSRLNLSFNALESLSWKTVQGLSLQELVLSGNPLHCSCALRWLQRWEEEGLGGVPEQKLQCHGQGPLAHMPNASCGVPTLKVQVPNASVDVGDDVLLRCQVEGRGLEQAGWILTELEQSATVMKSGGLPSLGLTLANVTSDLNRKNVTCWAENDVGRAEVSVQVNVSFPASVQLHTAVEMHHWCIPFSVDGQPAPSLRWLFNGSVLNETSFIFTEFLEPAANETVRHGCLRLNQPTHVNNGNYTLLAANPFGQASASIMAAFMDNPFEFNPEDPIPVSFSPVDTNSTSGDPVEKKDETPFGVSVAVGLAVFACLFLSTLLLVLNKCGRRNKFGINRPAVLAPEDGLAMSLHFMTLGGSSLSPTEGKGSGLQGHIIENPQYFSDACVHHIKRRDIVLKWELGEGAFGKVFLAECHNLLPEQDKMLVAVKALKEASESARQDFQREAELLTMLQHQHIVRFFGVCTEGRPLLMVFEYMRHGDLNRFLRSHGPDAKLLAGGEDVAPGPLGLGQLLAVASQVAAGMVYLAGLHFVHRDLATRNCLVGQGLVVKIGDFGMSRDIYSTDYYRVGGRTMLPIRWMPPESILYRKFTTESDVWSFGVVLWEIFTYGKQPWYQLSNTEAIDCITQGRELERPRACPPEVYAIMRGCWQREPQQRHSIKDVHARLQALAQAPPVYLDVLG

Turning to `Cc1cc(N(C)C(=O)[C@H](C)N2CCOCC2)cc2nc(-c3n[nH]c4c3C[C@@H]3C(F)(F)[C@]3(C)C4)[nH]c12` [Example 51, (S)—N-(2-((4aS,5aR)-5,5-difluoro-5a-methyl-1,4,4a,5,5a,6-hexahydrocyclopropa[f]indazol-3-yl)-7-methyl-1H-benzo[d]imidazol-5-yl)-N-methyl-2-morpholinopropanamide], the inhibition at 1 µM in assay [1] was found to be 97%. The compound also had a pIC50 in assay [2] of 7.72.
As to `Cc1cc2[nH]c(-c3n[nH]c4c3C[C@@H]3C[C@]3(C)C4)nc2cc1NC(=O)[C@H](C)N1CCOCC1` [Example 52, (S)—N-(6-methyl-2-((4aS,5aR)-5a-methyl-1,4,4a,5,5a,6-hexahydrocyclopropa[f]indazol-3-yl)-1H-benzo[d]imidazol-5-yl)-2-morpholinopropanamide], the inhibition at 1 µM in assay [1] turned out to be 109%. The compound also showed a pIC50 in assay [2] of 6.56.
The matching figures for `C[C@@H](C(=O)N(C)c1cc(C#N)c2[nH]c(-c3n[nH]c4c3C[C@@H]3C[C@]3(C)C4)nc2c1)C1CCOCC1` [Example 55, (R)—N-(7-cyano-2-((4aS,5aR)-5a-methyl-1,4,4a,5,5a,6-hexahydrocyclopropa[f]indazol-3-yl)-1H-benzo[d]imidazol-5-yl)-N-methyl-2-(tetrahydro-2H-pyran-4-yl)propanamide]: 89% and 7.39.
